Measurements published in US7163960B2, “Treatment and prevention of inflammatory disorders” (Monsanto Technology L.L.C., priority 2002, dated 2007).
Marks after values point to notes of the source that are not given here.

Assays:
Type in all cases: in vivo, human
[1] = Fatty acid analysis of blood cell phospholipids and plasma lipid fractions after ingestion of test fatty acids; details: both, human, in vivo
Text: 45 males and post-menopausal female—19–65 years of age, normolipidemic, and with a body mass index (BMI) in the range 20 to 30, were recruited. Exclusion criteria included bleeding disorders, hypertension, inflammatory disorders, active gastrointestinal diseases, chronic use of low dose aspirin, consumption of restaurant or takeaway evening meals more than twice per week, use of dietary supplements rich in n-3 or n-6 fatty acids, habitual consumption of more than 1 fish meal per month, and plasma phospholipid EPA+DHA levels>7.9% of total fatty acids (level achieved in the study group was 4.9±1.0% of total fatty acids).
(§1) Following a 3-week run-in period, subjects ingested either ALA, SDA, EPA supplied as ethyl esters in capsules. Intakes were 0.75 g/day for 3 weeks followed by 1.5 g/day for the subsequent 3 weeks.
At each visit, 36 mL of blood was taken by venepuncture after an overnight fast. Blood was aliquoted into various tubes for the following procedures.
Blood (20 mL) was added to tubes containing 4 mL 4.5% EDTA in water and 4 mL—6% dextran in normal saline, pH 7.0. Erythrocytes were allowed to sediment under gravity at 37° C. for 30 min. The leucocyte-rich plasma was layered onto LYMPHOPREP, density 1.077 (Nycomed Pharma, Oslo) and centrifuged at 110 g for 10 min to separate leucocytes from the platelets, which were removed. The gradient was further centrifuged at 200 g for 20 min to separate the neutrophils from mononuclear cells, which were removed.
Samples were processed for fatty acid analysis as described in Mantzioris et al., Am. J. Clin. Nutr., 72:42–8 (2000). Plasma, washed platelet and mononuclear cell pellets were stored at −80° C. Erythrocyte pellets were treated fresh with chloroform:isopropanol (2:1) and the lipid extracts stored at 4° C. Plasma, platelet and mononuclear cell pellets were extracted with chloroform:methanol. The cellular and plasma lipid extracts were fractionated by thin-layer chromatography. For the cellular extracts, the phospholipid fraction was retained and for the plasma extracts, the phospholipid, cholesterol ester, and triglyceride fractions were retained. These were transesterified by methanolysis (1% H2SO4 in methanol at 70° C. for 3 h). Fatty acid methyl esters were separated and quantified with a HEWLETT-PACKARD 6890 gas chromatograph equipped with a 50 m capillary column coated with BPX-70 (0.25 μm film thickness; SGE Pty Ltd, Victoria, Australia) (see Mantzioris et al., supra). Fatty acid standards were obtained from NuChek Prep Inc. (Elysian, Minn.) and included stearidonic acid obtained from Sigma Aldrich Pty Ltd. (Castle Hill, NSW, Australia). All organic solvents contained butylated hydroxy anisole (0.005%) as an antioxidant.

TNF-α = TNF-α synthesis in LPS-treated whole blood; details: for TNF-α synthesis in LPS-treated whole blood: mean ± SD
Experimental: as §1
(§2) Blood (4 mL) was added to heparinised tubes, bacterial lipopolysaccharide (LPS) was added (200 ng/mL), and the mixture was incubated at 37° C., 5% CO2, for 24 h. Plasma was collected and assayed for prostaglandin E2 (PGE2) by radioimmunoassay (RIA), interleukin-1β (IL-1β) and tumor necrosis factor-α (TNF-α) by ELISA, as described in Mantzioris et al., supra.

IL-1β = IL-1β synthesis in LPS-treated whole blood; details: for IL-1β synthesis in LPS-treated whole blood: mean ± SD
Experimental: as §1, §2

prostaglandin E2 (PGE2) = experiment: PGE2 synthesis in LPS-stimulated whole blood; details: for PGE2 synthesis in LPS-stimulated whole blood: mean ± SD
Experimental: as §1, §2

[2] = Week 3 (after 0.75 g/day for 3 weeks)
[3] = Week 6 (after 1.5 g/day for 3 weeks)
[4] = Week −3 (start of run-in, before dosing)

DHA (% of total fatty acids), Erythrocyte phospholipid ([1]; 0 week): 4.61 ± 0.71^b % of total fatty acids
DHA (% of total fatty acids), Plasma phospholipid ([1]; 0 weeks): 3.64 ± 0.65 % of total fatty acids
DPA (% of total fatty acids), Erythrocyte phospholipid ([1]; 0 weeks): 3:08 ± 0:35 % of total fatty acids
DPA (% of total fatty acids), Plasma phospholipid ([1]; 0 weeks): 1.39 ± 0.26^ab % of total fatty acids
EPA (% of total fatty acids), Monocyte ([1]; 0 weeks): 0.57 (0.11)a % of total fatty acids
EPA (% of total fatty acids), Plasma CE ([1]; 0 weeks): 1.16 (0.33)ab % of total fatty acids
EPA (% of total fatty acids), Plasma Phospholipid ([1]; 0 weeks): 1.16 (0.31)ab % of total fatty acids
EPA (% of total fatty acids), Plasma TG ([1]; 0 weeks): 0.27 (0.12) % of total fatty acids
EPA (% of total fatty acids), Platelet ([1]; 0 weeks): 0.48 (0.11)a % of total fatty acids
EPA (% of total fatty acids), Red Blood ([1]; 0 weeks): 0.88 (0.17)a % of total fatty acids
EPA (% of total fatty acids), Monocyte ([1]; 3 weeks): 0.63 (0.14)a3 % of total fatty acids
EPA (% of total fatty acids), Plasma CE ([1]; 3 weeks): 1.35 (0.58)bc2 % of total fatty acids
EPA (% of total fatty acids), Plasma Phospholipid ([1]; 3 weeks): 1.33 (0.54)bc3 % of total fatty acids
EPA (% of total fatty acids), Plasma TG ([1]; 3 weeks): 0.32 (0.13)2 % of total fatty acids
EPA (% of total fatty acids), Platelet ([1]; 3 weeks): 0.55 (0.14)a2 % of total fatty acids
EPA (% of total fatty acids), Red Blood ([1]; 3 weeks): 0.92 (0.23)a3 % of total fatty acids
EPA (% of total fatty acids), Monocyte ([1]; 6 weeks): 0.81 (0.28)b2 % of total fatty acids
EPA (% of total fatty acids), Plasma CE ([1]; 6 weeks): 1.41 (0.36)c3 % of total fatty acids
EPA (% of total fatty acids), Plasma Phospholipid ([1]; 6 weeks): 1.43 (0.40)c3 % of total fatty acids
EPA (% of total fatty acids), Plasma TG ([1]; 6 weeks): 0.34 (0.16)2 % of total fatty acids
EPA (% of total fatty acids), Platelet ([1]; 6 weeks): 0.64 (0.21)b2 % of total fatty acids
EPA (% of total fatty acids), Red Blood ([1]; 6 weeks): 1.01 (0.18)b3 % of total fatty acids
DHA (% of total fatty acids), Erythrocyte phospholipid ([1]; -3 week): 4.87 ± 0.74^a % of total fatty acids
DHA (% of total fatty acids), Plasma phospholipid ([1]; -3 weeks): 3.70 ± 0.63 % of total fatty acids
DPA (% of total fatty acids), Erythrocyte phospholipid ([1]; -3 weeks): 3.10 ± 0.40 % of total fatty acids
DPA (% of total fatty acids), Plasma phospholipid ([1]; -3 weeks): 1.29 ± 0.18^a % of total fatty acids
EPA (% of total fatty acids), Monocyte ([1]; -3 weeks): 0.67 (0.20)^a % of total fatty acids
EPA (% of total fatty acids), Plasma CE ([1]; -3 weeks): 1.11 (0.26)^a % of total fatty acids
EPA (% of total fatty acids), Plasma Phospholipid ([1]; -3 weeks): 1.07 (0.23)^a % of total fatty acids
EPA (% of total fatty acids), Plasma TG ([1]; -3 weeks): 0.26 (0.08) % of total fatty acids
EPA (% of total fatty acids), Platelet ([1]; -3 weeks): 0.44 (0.12)^a % of total fatty acids
EPA (% of total fatty acids), Red Blood ([1]; -3 weeks): 0.88 (0:16)^a % of total fatty acids
Compound: CC/C=C\C/C=C\C/C=C\CCCCCCCC(=O)O [ALA, α-linolenic acid]
Effect on LPS-stimulated TNF synthesis (TNF-α; 1.5 g/day): statistically significant decreases
TNF-α synthesis in LPS-treated whole blood (TNF-α; Week 0 (baseline)): 36.8 ± 17.4^a ng/mL
TNF-α synthesis in LPS-treated whole blood (TNF-α; [2]): 32.7 ± 11.9^a ng/mL
TNF-α synthesis in LPS-treated whole blood (TNF-α; [3]): 25.3 ± 7.2^b ng/mL
TNF-α synthesis in LPS-treated whole blood (TNF-α; [4]): 30.9 ± 13.1^a ng/mL
Effect on LPS-stimulated IL-1β synthesis (IL-1β; 0.75 g/day or 1.5 g/day (either dose)): no effect
IL-1β synthesis in LPS-treated whole blood (IL-1β; Week 0 (baseline)): 96.9 ± 30.9 ng/mL
IL-1β synthesis in LPS-treated whole blood (IL-1β; [2]): 87.3 ± 29.9 ng/mL
IL-1β synthesis in LPS-treated whole blood (IL-1β; [3]): 83.3 ± 24.0 ng/mL
IL-1β synthesis in LPS-treated whole blood (IL-1β; [4]): 97.9 ± 27.4 ng/mL
Effect on LPS-stimulated PGE2 synthesis (prostaglandin E2 (PGE2); 1.5 g/day): no change
Effect on LPS-stimulated PGE2 synthesis (prostaglandin E2 (PGE2); Visit 3, following ingestion of 0.75 g): statistically significant increases
PGE2 synthesis in LPS-stimulated whole blood (prostaglandin E2 (PGE2); Week 0 (baseline)): 4.63 ± 2.21^a ng/mL
PGE2 synthesis in LPS-stimulated whole blood (prostaglandin E2 (PGE2); [2]): 6.25 ± 3.00^b ng/mL
PGE2 synthesis in LPS-stimulated whole blood (prostaglandin E2 (PGE2); [3]): 4.30 ± 1.37^a ng/mL
PGE2 synthesis in LPS-stimulated whole blood (prostaglandin E2 (PGE2); [4]): 4.00 ± 1.65^a ng/mL
